Results reported in publication PMC6930500, “Structure–Activity Relationships of 7-Substituted Dimethyltyrosine-Tetrahydroisoquinoline Opioid Peptidomimetics” (Molecules, 2019).

Key:
human KOR [1] = target: T1, human KOR (Homo sapiens, UniProt P41145); assay: [35S]-GTPγS binding stimulation, KOR; type: biochemical; details: mean (SEM); for EC50 KOR / EC50: CHO-human KOR membranes, * n = 2, dns = does not stimulate, average maximal stimulation <10% at up to 10 µM; for % Stimulation KOR / Emax: versus 10 µM standard agonist U69,593, dns = average maximal stimulation <10% at up to 10 µM
T1 construct: expressed in transfected cells; cell lines provided by Professor Lawrence Toll
Experimental: (§1) Each novel compound was evaluated for binding to and stimulation of KOR, MOR, and DOR. Binding affinity (Ki) was determined by competitive displacement of [^3H]-diprenorphine, a non-selective opioid receptor antagonist with similar affinity for each of the three receptors. Potency (EC50) and efficacy, expressed as percent stimulation compared to a standard agonist at each receptor, were determined by a [^35S]-GTPγS binding assay.
(§2) Membranes prepared from transfected Chinese Hamster Ovary cells stably expressing human KOR, human MOR, or human DOR were used for all assays. Cells were grown to confluence at 37 °C in 5% CO2 in 1:1 DMEM:F12 media with 10% v/v fetal bovine serum and 5% v/v penicillin/streptomycin. Membranes were prepared by washing confluent cells three times with ice cold phosphate-buffered saline (0.9% NaCl, 0.61 mM Na2HPO4, 0.38 mM KH2PO4, pH 7.4). Cells were detached from the plates by incubation in warm harvesting buffer (20 mM HEPES, 150 mM NaCl, 0.68 mM EDTA, pH 7.4) and pelleted by centrifugation at 200× g for 3 min. The cell pellet was suspended in ice-cold 50 mM Tris-HCl buffer, pH 7.4 and homogenized with a Tissue Tearor (Biospec Products, Inc, distributed by Cole-Parmer, Vernon Hills, IL, USA) for 20 s at setting 4. The homogenate was centrifuged at 20,000× g for 20 min at 4 °C, and the pellet was rehomogenized in 50 mM Tris-HCl pH 7.4 with a Tissue Tearor for 10 s at setting 2, followed by recentrifugation. The final pellet was resuspended in 50 mM Tris-HCl pH 7.4 and frozen in aliquots at −80 °C. Protein concentration was determined via Pierce BCA protein assay kit using bovine serum albumin as the standard.
(§3) Agonist stimulation of KOR, MOR, and DOR by all test compounds was determined by [^35S]-guanosine 5′-O-[γ-thio]triphosphate ([^35S]-GTPγS) binding assays as previously reported. In a 96-well plate format, membranes from cells expressing opioid receptors as described above (10 µg of protein), [^35S]-GTPγS (0.1 nM), and guanosine diphosphate (30 µM) were incubated in GTPγS buffer (50 mM Tris-HCl, 100 mM NaCl, 5 mM MgCl2, 1 mM EDTA, pH 7.4) with various concentrations of test compound at 25 °C for 1 h. Basal stimulation was determined by incubation in the absence of any ligand. After incubation, membranes were filtered through Whatman GF/C 1.2 micron glass fiber filters and washed with GTPγS buffer with no EDTA. The radioactivity remaining on the filters was then quantified by liquid scintillation counting after saturation with EcoLume liquid scintillation cocktail in a Perkin-Elmer Microbeta 2450. Data are reported as percent stimulation compared to the effects of 10 µM standard agonists—U69,593 (KOR), DAMGO (MOR), or DPDPE (DOR). Percent stimulation and EC50 values were determined via nonlinear regression analysis using GraphPad Prism software from at least three separate assays performed in duplicate. Efficacy is expressed as percent stimulation relative to standard agonists.

human MOR [2] = target: T2, human MOR (Homo sapiens, UniProt P35372); assay: [3H]-diprenorphine competitive displacement binding, MOR; details: membranes from CHO cells expressing human MOR; mean (SEM), n>=3 in duplicate
T2 construct: expressed in transfected cells; cell lines provided by Professor Lawrence Toll
Experimental: as §1, §2
(§4) Binding affinities for all test compounds at KOR, MOR, and DOR were determined by competitive displacement of [^3H]-diprenorphine as previously reported. In a 96-well plate format, cell membranes (5–10 µg of protein) and [^3H]-diprenorphine (0.2 nM) were incubated in Tris-HCl buffer (50 mM, pH 7.4) with various concentrations of test compound at 25 °C for 1 h, allowing the mixture to reach equilibrium. Nonspecific binding was determined using the opioid antagonist naloxone (10 µM), and total binding was determined using vehicle in the absence of competitive ligand. After incubation, membranes were filtered through Whatman GF/C 1.2 micron glass fiber filters and washed with 50 mM Tris-HCl buffer. The radioactivity remaining on the filters was then quantified by liquid scintillation counting after saturation with EcoLume liquid scintillation cocktail in a Microbeta 2450 (Perkin-Elmer, Waltham, MA, USA). Binding affinity (Ki) values were calculated using the Cheng–Prusoff equation via nonlinear regression analysis using GraphPad Prism software from at least three separate binding assays performed in duplicate.

human DOR [3] = target: T3, human DOR (Homo sapiens, UniProt P41143); assay: [3H]-diprenorphine competitive displacement binding, DOR; details: membranes from CHO cells expressing human DOR; mean (SEM), n>=3 in duplicate
T3 construct: expressed in transfected cells; cell lines provided by Professor Lawrence Toll
Experimental: as §1, §2, §4

human KOR [4] = target: T1, human KOR; assay: [3H]-diprenorphine competitive displacement binding, KOR; details: for Ki: membranes from CHO cells expressing human KOR, mean (SEM), n>=3 in duplicate
Experimental: as §1, §2, §4

human DOR [5] = target: T3, human DOR; assay: [35S]-GTPγS binding stimulation, DOR; type: biochemical; details: mean (SEM), * n = 2; for % Stimulation DOR: versus 10 µM standard agonist DPDPE, dns = average maximal stimulation <10% at up to 10 µM
Experimental: as §1, §2, §3

human MOR [6] = target: T2, human MOR; assay: [35S]-GTPγS binding stimulation, MOR; type: biochemical; details: for EC50: CHO-human MOR membranes, dns = does not stimulate, average maximal stimulation <10% at up to 10 µM; for EC50 / Emax: mean (SEM), * n = 2; for Emax: versus 10 µM standard agonist DAMGO, dns = average maximal stimulation <10% at up to 10 µM
Experimental: as §1, §2, §3

[7] = CHO-human DOR membranes, dns = does not stimulate, average maximal stimulation <10% at up to 10 µM

| SMILES | EC50 KOR (human KOR [1]) | % Stimulation KOR (human KOR [1]) | Ki (human MOR [2]) [nM] | Ki (human DOR [3]) [nM] | Ki (human KOR [4]) [nM] | EC50 DOR (human DOR [5]; [7]) | % Stimulation DOR (human DOR [5]) | EC50 (human MOR [6]) [nM] | Emax (human MOR [6]) [%] | EC50 (human KOR [1]) [nM] | Emax (human KOR [1]) [%] | selectivity for MOR and DOR over KOR (human KOR [4]; binding selectivity) [fold] | EC50 (human DOR [5]; [7]) [nM] | selective for KOR and DOR over MOR (human KOR [4]; binding selectivity) | more potent at MOR (versus KOR) (human MOR [6]; ratio of EC50 values, GTPγS) |
| --- | --- | --- | --- | --- | --- | --- | --- | --- | --- | --- | --- | --- | --- | --- | --- |
| Cc1cc(O)cc(C)c1C[C@H](N)C(=O)N1CCc2ccc(Cc3ccc4ccccc4c3)cc2C1 [Compound 8p, (S)-2-amino-3-(4-hydroxy-2,6-dimethylphenyl)-1-(7-(naphthalen-2-ylmethyl)-3,4-dihydroisoquinolin-2(1H)-yl)propan-1-one] | dns | dns | 5.8 | 3.5 | 142 | dns | dns | 176 | 51 |  |  |  |  |  |  |
| Cc1cc(O)cc(C)c1C[C@H](N)C(=O)N1CCc2ccc(Cc3cccc4cnccc34)cc2C1 [Compound 8s, (S)-2-amino-3-(4-hydroxy-2,6-dimethylphenyl)-1-(7-(isoquinolin-5-ylmethyl)-3,4-dihydroisoquinolin-2(1H)-yl)propan-1-one] |  |  | 9.7 | 1.2 | 10 | dns | dns | 43 | 28 | 609 | 24 |  |  |  |  |
| Cc1cc(O)cc(C)c1C[C@H](N)C(=O)N1CCc2ccc(CN3Cc4ccccc4C3)cc2C1 [Compound 8z, (S)-2-amino-3-(4-hydroxy-2,6-dimethylphenyl)-1-(7-(isoindolin-2-ylmethyl)-3,4-dihydroisoquinolin-2(1H)-yl)propan-1-one] | dns | dns | 1.5 | 1.3 | 65 | dns * | dns * | 27 | 63 |  |  | 43 |  |  |  |
| Cc1cc(O)cc(C)c1C[C@H](N)C(=O)N1CCc2ccc(Cc3cccc(C(F)(F)F)c3)cc2C1 [Compound 8g, (S)-2-amino-3-(4-hydroxy-2,6-dimethylphenyl)-1-(7-(3-(trifluoromethyl)benzyl)-3,4-dihydroisoquinolin-2(1H)-yl)propan-1-one] |  |  | 4.1 | 1.6 | 5.4 | dns | dns | 205 | 45 | 319 | 68 |  |  |  |  |
| Cc1cc(O)cc(C)c1C[C@H](N)C(=O)N1CCc2ccc(Cc3cccc4cccnc34)cc2C1 [Compound 8q, (S)-2-amino-3-(4-hydroxy-2,6-dimethylphenyl)-1-(7-(quinolin-8-ylmethyl)-3,4-dihydroisoquinolin-2(1H)-yl)propan-1-one] |  |  | 1.4 | 0.46 | 19 |  | 23 (4) % | 24 | 63 | 258 | 25 |  | 1.2 |  |  |
| Cc1cc(O)cc(C)c1C[C@H](N)C(=O)N1CCc2ccc(CN3CCc4ccccc43)cc2C1 [Compound 8y, (S)-2-amino-3-(4-hydroxy-2,6-dimethylphenyl)-1-(7-(indolin-1-ylmethyl)-3,4-dihydroisoquinolin-2(1H)-yl)propan-1-one] |  |  | 2.2 | 1.7 | 2.6 | dns * | dns * | 42 | 65 | 106 | 66 |  |  |  |  |
| Cc1cc(O)cc(C)c1C[C@H](N)C(=O)N1CCc2ccc(Cc3ccccc3C#N)cc2C1 [Compound 8d, (S)-2-((2-(2-amino-3-(4-hydroxy-2,6-dimethylphenyl)propanoyl)-1,2,3,4-tetrahydroisoquinolin-7-yl)methyl)benzonitrile] |  |  | 6.8 | 3.6 | 0.5 | dns | dns | 664 | 31 | 3.7 | 80 |  |  |  |  |
| COc1ccccc1Cc1ccc2c(c1)CN(C(=O)[C@@H](N)Cc1c(C)cc(O)cc1C)CC2 [Compound 8a, (S)-2-amino-3-(4-hydroxy-2,6-dimethylphenyl)-1-(7-(2-methoxybenzyl)-3,4-dihydroisoquinolin-2(1H)-yl)propan-1-one] |  |  | 3.7 | 2.7 | 3.1 | dns * | dns * | 92 | 37 | 130 | 72 |  |  |  |  |
| Cc1cc(O)cc(C)c1C[C@H](N)C(=O)N1CCc2ccc(Cc3cccc4ncccc34)cc2C1 [Compound 8t, (S)-2-amino-3-(4-hydroxy-2,6-dimethylphenyl)-1-(7-(quinolin-5-ylmethyl)-3,4-dihydroisoquinolin-2(1H)-yl)propan-1-one] |  |  | 4.6 | 1.2 | 1.5 | dns * | dns * | 54 | 31 | 58 | 69 |  |  | approximately 3 fold | equipotent |
| Cc1cc(O)cc(C)c1C[C@H](N)C(=O)N1CCc2ccc(Cc3ccnc4ccccc34)cc2C1 [Compound 8u, (S)-2-amino-3-(4-hydroxy-2,6-dimethylphenyl)-1-(7-(quinolin-4-ylmethyl)-3,4-dihydroisoquinolin-2(1H)-yl)propan-1-one] | dns | dns | 6.6 | 0.79 | 8.6 | dns * | dns * | 54 | 45 |  |  |  |  |  |  |
| Cc1cc(O)cc(C)c1C[C@H](N)C(=O)N1CCc2ccc(Cc3cccc4ccncc34)cc2C1 [Compound 8r, (S)-2-amino-3-(4-hydroxy-2,6-dimethylphenyl)-1-(7-(isoquinolin-8-ylmethyl)-3,4-dihydroisoquinolin-2(1H)-yl)propan-1-one] |  |  | 1.8 | 0.69 | 2.7 | dns * | dns * | 24 | 36 | 65 | 42 |  |  |  |  |
